Results as given in PMC8000760, “Potential Effect of Pseudevernia furfuracea (L.) Zopf Extract and Metabolite Physodic Acid on Tumour Microenvironment Modulation in MCF-10A Cells” (Biomolecules, 2021).

Assays:
[1] = system: BJ-5ta; assay: MTS cell viability assay; type: cell-based; details: 72 h
Method: Briefly, MCF-10A and BJ-5ta were seeded in 96-well culture plates, and after 24 h incubation, treated with various ranges of concentrations of tested compounds (10–100 μg/mL) for 72 h. At the same time, HUVECs were seeded in a gelatine-coated 96-well plate and treated with the same aliquots of indicated compounds in the presence or absence of VEGF (Vascular endothelial growth factor) (25 ng/mL) for 48 h. Cell viability was evaluated by measuring the absorbance at 490 nm using the automated CytationTM 3 Cell Imaging Multi-Mode Reader (Biotek, Winooski, VT, USA). Three independent experiments were performed at different intervals.

[2] = system: BJ-5ta; assay: BrdU cell proliferation assay; type: cell-based; details: 72 h
Method: The MCF-10A (5 × 10^3/well), BJ-5ta (5 × 10^3/well) and HUVEC cells (4 × 10^3/well) were plated in a 96-well plate in 80 μL suitable medium. HUVECs were seeded onto a gelatine-coated plate. After 24 h, cells were treated with the range of concentration 10–100 μg/mL for 72 h (MCF-10A, BJ-5ta), or in the presence or absence of 25 ng/mL of VEGF for 48 h (HUVECs). After 48 h (MCF-10A, BJ-5ta) or 24 h (HUVECs), BrdU labelling solution was added into cells and incubated for another 24 h at 37 °C, followed by fixation and incubation with anti-BrdU peroxidase conjugate solution for an additional 1.5 h at room temperature (RT). Then, cells were washed with washing buffer PBS and incubated with substrate solution TMB for 5 to 30 min according to colour intensity. Finally, we added stop solution (1 M H2SO4) and incorporated BrdU was detected with an automated CytationTM 3 Cell Imaging Multi-Mode Reader at 450 nm (reference wavelength: 690 nm). Three independent experiments were performed at different intervals.

[3] = system: fibronectin in TGF-β-stimulated MCF-10A cells; assay: Fibronectin expression, immunofluorescence; type: cell-based, human; details: IC10, TGF-β-stimulated MCF-10A
Method: (§1) The MCF-10A and BJ-5ta cells were seeded and cultivated for 24 h in a complete medium. One day after seeding, 30 ng/mL of TGF-β was added and cultivated for 7 days (d). TGF-β was added to induce epithelial–mesenchymal transition in tested cell lines. Lichen extract P. furfuracea (L.) Zopf and its metabolite physodic acid were added at time 0 h and then incubated for 24, 48 and 72 h for various analyses, as described in Figure 1.
The MCF-10A cells at a density of 2 × 10^3/cm^2, plated on 22 mm^2 glass coverslips, were stimulated for 7 days with 30 ng/mL of TGF-β. […] After treatment, cells were washed with PBS, fixed with 4% paraformaldehyde (pH 7.2) for 10 min, permeabilised by 0.1% Triton X-100 (Sigma-Aldrich) for 10 min at RT and then washed three) times with PBS for 5 min. Glass coverslips were then incubated with Swine serum (1:30) for 30 min for blocking non-specific binding. Primary antibodies were diluted according to the manufacturer’s instructions (Table 2) and transferred to coverslips for 90 min. […] All coverslips were mounted in Vectashield (Cole-Parmer, Illinois, USA) and immunofluorescence pictures were taken with the same exposition settings by the Nikon Eclipse 90i fluorescence microscope (Nikon, Tokyo, Japan) equipped with filter cubes for FITC and DAPI. Images were then analysed using ImageJ (NIH) software.

[4] = system: N-cadherin, fibronectin, α-SMA, Slug in BJ-5ta; assay: Western blot of mesenchymal markers in TGF-β-stimulated fibroblasts; type: cell-based; details: TGF-β-stimulated BJ-5ta, 48 and 72 h, time- and dose-dependent manner
Method: as §1
(§2) Proteins isolated from MCF-10A and BJ-5ta cell lysates were determined by the Pierce® BCA Protein Assay Kit (Thermo Scientific, Rockford, IL, United States), using bovine serum albumin (BSA) as the standard, and measured by an automated Cytation™ 3 Cell Imaging Multi-Mode Reader (Biotek) at a wavelength of 570 nm. Proteins were separated on SDS-PAA gel (12%) at 100 V for 2 h and then transferred to a polyvinylidene difluoride (PVDF) membrane using the iBlot dry blotting system (Thermo Scientific, Rockford, IL, United States). […] After incubation, the membrane was again washed in TBS-Tween (3 × 5 min), and the expression of the protein was detected using a chemiluminescent ECL substrate (Thermo Fisher Scientific) and MF-ChemiBIS 2.0 Imaging System (DNR BIO-Imaging Systems, Jerusalem, Israel). The detected band was then analysed densitometrically using the Image Studio Lite software (LI-COR Biosciences, Lincoln, NE, USA). […]

[5] = system: Smad2/3 in BJ-5ta; assay: Western blot of total Smad2/3 in TGF-β-stimulated fibroblasts; type: cell-based; details: TGF-β-stimulated BJ-5ta
Method: as §1, §2

[6] = system: Slug in BJ-5ta; assay: Western blot of Slug in TGF-β-stimulated fibroblasts; type: cell-based; details: 72 h treatment
Method: as §1, §2

Compound: CCCCCC(=O)Cc1cc(O)cc2c1C(=O)Oc1cc(O)c(C(=O)O)c(CCCCC)c1O2 [Phy, physodic acid]
- IC10 [1]: 46.35 ± 0.39 µM
- IC50 [1]: 83.2 ± 1.02 µM
- IC10 [2]: 62.88 ± 0.90 µM
- IC50 [2]: 164 ± 4.5 µM
- fibronectin expression, immunofluorescence [3]: downregulation
- mesenchymal markers expression [4]: significantly decrease
- total Smad2/3 levels [5]: altered minimally
- Slug protein [6]: downregulation
